Type in all cases: ADME, cell-based
In series [1] the target is T1, Cytochrome P450 3A4 (Homo sapiens, UniProt P08684). Description: Drug activation in human Hep3B cells assessed as human CYP3A4-mediated drug metabolism-induced cytotoxicity measured as decrease in cell viability at 89.6 uM pre-incubated with BSO for 18 hrs followed by incubation with compound for 3 hrs in presence of NADPH measured after 24 hrs in absence of compound, CYP3A4 and NADPH by cell titer-glo luminescence assay relative to BSO alone. As to conditions: recombinant enzyme.
T1 sequence (P08684 whole entry): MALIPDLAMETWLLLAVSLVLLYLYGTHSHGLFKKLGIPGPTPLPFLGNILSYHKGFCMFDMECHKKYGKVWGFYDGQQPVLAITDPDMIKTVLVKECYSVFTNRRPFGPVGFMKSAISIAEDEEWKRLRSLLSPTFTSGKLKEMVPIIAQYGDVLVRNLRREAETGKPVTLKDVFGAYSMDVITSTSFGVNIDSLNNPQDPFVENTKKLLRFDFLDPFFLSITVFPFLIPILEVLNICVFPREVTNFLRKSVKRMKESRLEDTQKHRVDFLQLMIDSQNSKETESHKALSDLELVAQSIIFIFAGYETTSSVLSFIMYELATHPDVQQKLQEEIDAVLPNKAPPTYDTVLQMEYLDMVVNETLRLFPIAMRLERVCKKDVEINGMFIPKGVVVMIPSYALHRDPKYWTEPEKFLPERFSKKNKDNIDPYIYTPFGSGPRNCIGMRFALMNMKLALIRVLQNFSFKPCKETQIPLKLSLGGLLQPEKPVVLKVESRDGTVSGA

The target in series [2] is T2, Cytochrome P450 2D6 (Homo sapiens, UniProt P10635). Nature of the series: Drug activation in human Hep3B cells assessed as human CYP2D6-mediated drug metabolism-induced cytotoxicity measured as decrease in cell viability at 130.3 uM pre-incubated with BSO for 18 hrs followed by incubation with compound for 3 hrs in presence of NADPH measured after 24 hrs in absence of compound, CYP3A4 and NADPH by cell titer-glo luminescence assay relative to BSO alone. Conditions: recombinant enzyme.
T2 sequence (P10635 whole entry): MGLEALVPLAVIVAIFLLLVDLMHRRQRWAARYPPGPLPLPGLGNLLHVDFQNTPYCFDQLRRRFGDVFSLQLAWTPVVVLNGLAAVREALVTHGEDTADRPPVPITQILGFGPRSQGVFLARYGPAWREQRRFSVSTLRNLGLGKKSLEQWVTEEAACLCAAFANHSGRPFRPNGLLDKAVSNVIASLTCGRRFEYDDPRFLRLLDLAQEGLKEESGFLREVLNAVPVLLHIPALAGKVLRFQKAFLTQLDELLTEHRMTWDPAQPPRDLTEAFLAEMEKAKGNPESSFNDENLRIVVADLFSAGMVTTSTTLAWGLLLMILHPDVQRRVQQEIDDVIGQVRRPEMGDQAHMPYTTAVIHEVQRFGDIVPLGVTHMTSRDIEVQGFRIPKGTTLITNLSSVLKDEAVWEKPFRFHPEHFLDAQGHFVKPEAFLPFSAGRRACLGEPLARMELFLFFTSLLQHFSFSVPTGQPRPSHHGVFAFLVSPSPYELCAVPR

Series [3] concerns the target T3, Cytochrome P450 2C9 (Homo sapiens, UniProt P11712). Description: Drug activation in human Hep3B cells assessed as human CYP2C9-mediated drug metabolism-induced cytotoxicity measured as decrease in cell viability at 118.7 uM pre-incubated with BSO for 18 hrs followed by incubation with compound for 3 hrs in presence of NADPH measured after 24 hrs in absence of compound, CYP3A4 and NADPH by cell titer-glo luminescence assay relative to BSO alone. Conditions: recombinant enzyme. A general note: In ATP-based viability assays light output follows the ATP content of the culture.

In series [4] the target is T1, Cytochrome P450 3A4. Nature of the series: Drug activation in human Hep3B cells assessed as human CYP3A4-mediated drug metabolism-induced cytotoxicity measured as decrease in cell viability at 89.1 uM pre-incubated with BSO for 18 hrs followed by incubation with compound for 3 hrs in presence of NADPH measured after 24 hrs in absence of compound, CYP3A4 and NADPH by cell titer-glo luminescence assay relative to BSO alone. As to conditions: recombinant enzyme.

Series [5] deals with T2, Cytochrome P450 2D6. Nature of the series: Drug activation in human Hep3B cells assessed as human CYP2D6-mediated drug metabolism-induced cytotoxicity measured as decrease in cell viability at 162.8 uM pre-incubated with BSO for 18 hrs followed by incubation with compound for 3 hrs in presence of NADPH measured after 24 hrs in absence of compound, CYP3A4 and NADPH by cell titer-glo luminescence assay relative to BSO alone. Conditions: recombinant enzyme.

Series [6] deals with T3, Cytochrome P450 2C9. Nature of the series: Drug activation in human Hep3B cells assessed as human CYP2C9-mediated drug metabolism-induced cytotoxicity measured as decrease in cell viability at 200.9 uM pre-incubated with BSO for 18 hrs followed by incubation with compound for 3 hrs in presence of NADPH measured after 24 hrs in absence of compound, CYP3A4 and NADPH by cell titer-glo luminescence assay relative to BSO alone. Conditions: recombinant enzyme.

The target of series [7] is T1, Cytochrome P450 3A4. Nature of the series: Drug activation in human Hep3B cells assessed as human CYP3A4-mediated drug metabolism-induced cytotoxicity measured as decrease in cell viability at 14.9 uM pre-incubated with BSO for 18 hrs followed by incubation with compound for 3 hrs in presence of NADPH measured after 24 hrs in absence of compound, CYP3A4 and NADPH by cell titer-glo luminescence assay relative to BSO alone. As to conditions: recombinant enzyme.

Series [8] deals with T2, Cytochrome P450 2D6. Nature of the series: Drug activation in human Hep3B cells assessed as human CYP2D6-mediated drug metabolism-induced cytotoxicity measured as decrease in cell viability at 20.8 uM pre-incubated with BSO for 18 hrs followed by incubation with compound for 3 hrs in presence of NADPH measured after 24 hrs in absence of compound, CYP3A4 and NADPH by cell titer-glo luminescence assay relative to BSO alone. As to conditions: recombinant enzyme.

For series [9], the target named is T3, Cytochrome P450 2C9. Description: Drug activation in human Hep3B cells assessed as human CYP2C9-mediated drug metabolism-induced cytotoxicity measured as decrease in cell viability at 78.1 uM pre-incubated with BSO for 18 hrs followed by incubation with compound for 3 hrs in presence of NADPH measured after 24 hrs in absence of compound, CYP3A4 and NADPH by cell titer-glo luminescence assay relative to BSO alone. Conditions: recombinant enzyme.

Series [10] has as its target T1, Cytochrome P450 3A4. Nature of the series: Drug activation in human Hep3B cells assessed as human CYP3A4-mediated drug metabolism-induced cytotoxicity measured as decrease in cell viability at 10.7 uM pre-incubated with BSO for 18 hrs followed by incubation with compound for 3 hrs in presence of NADPH measured after 24 hrs in absence of compound, CYP3A4 and NADPH by cell titer-glo luminescence assay relative to BSO alone. Conditions: recombinant enzyme.

For series [11], the target named is T2, Cytochrome P450 2D6. Description: Drug activation in human Hep3B cells assessed as human CYP2D6-mediated drug metabolism-induced cytotoxicity measured as decrease in cell viability at 131.3 uM pre-incubated with BSO for 18 hrs followed by incubation with compound for 3 hrs in presence of NADPH measured after 24 hrs in absence of compound, CYP3A4 and NADPH by cell titer-glo luminescence assay relative to BSO alone. Conditions: recombinant enzyme.

Series [12] concerns the target T3, Cytochrome P450 2C9. Description: Drug activation in human Hep3B cells assessed as human CYP2C9-mediated drug metabolism-induced cytotoxicity measured as decrease in cell viability at 77.6 uM pre-incubated with BSO for 18 hrs followed by incubation with compound for 3 hrs in presence of NADPH measured after 24 hrs in absence of compound, CYP3A4 and NADPH by cell titer-glo luminescence assay relative to BSO alone. As to conditions: recombinant enzyme.

Series [13] addresses T1, Cytochrome P450 3A4. Nature of the series: Drug activation in human Hep3B cells assessed as human CYP3A4-mediated drug metabolism-induced cytotoxicity measured as decrease in cell viability at 37.6 uM pre-incubated with BSO for 18 hrs followed by incubation with compound for 3 hrs in presence of NADPH measured after 24 hrs in absence of compound, CYP3A4 and NADPH by cell titer-glo luminescence assay relative to BSO alone. As to conditions: recombinant enzyme.

Series [14] has as its target T2, Cytochrome P450 2D6. Nature of the series: Drug activation in human Hep3B cells assessed as human CYP2D6-mediated drug metabolism-induced cytotoxicity measured as decrease in cell viability at 66.8 uM pre-incubated with BSO for 18 hrs followed by incubation with compound for 3 hrs in presence of NADPH measured after 24 hrs in absence of compound, CYP3A4 and NADPH by cell titer-glo luminescence assay relative to BSO alone. As to conditions: recombinant enzyme.

Series [15] addresses T3, Cytochrome P450 2C9. Nature of the series: Drug activation in human Hep3B cells assessed as human CYP2C9-mediated drug metabolism-induced cytotoxicity measured as decrease in cell viability at 59.9 uM pre-incubated with BSO for 18 hrs followed by incubation with compound for 3 hrs in presence of NADPH measured after 24 hrs in absence of compound, CYP3A4 and NADPH by cell titer-glo luminescence assay relative to BSO alone. As to conditions: recombinant enzyme.

Series [16] has as its target T1, Cytochrome P450 3A4. Nature of the series: Drug activation in human Hep3B cells assessed as human CYP3A4-mediated drug metabolism-induced cytotoxicity measured as decrease in cell viability at 9.6 uM pre-incubated with BSO for 18 hrs followed by incubation with compound for 3 hrs in presence of NADPH measured after 24 hrs in absence of compound, CYP3A4 and NADPH by cell titer-glo luminescence assay relative to BSO alone. Conditions: recombinant enzyme.

In series [17] the target is T2, Cytochrome P450 2D6. Nature of the series: Drug activation in human Hep3B cells assessed as human CYP2D6-mediated drug metabolism-induced cytotoxicity measured as decrease in cell viability at 8.6 uM pre-incubated with BSO for 18 hrs followed by incubation with compound for 3 hrs in presence of NADPH measured after 24 hrs in absence of compound, CYP3A4 and NADPH by cell titer-glo luminescence assay relative to BSO alone. As to conditions: recombinant enzyme.

The target of series [18] is T3, Cytochrome P450 2C9. Nature of the series: Drug activation in human Hep3B cells assessed as human CYP2C9-mediated drug metabolism-induced cytotoxicity measured as decrease in cell viability at 14 uM pre-incubated with BSO for 18 hrs followed by incubation with compound for 3 hrs in presence of NADPH measured after 24 hrs in absence of compound, CYP3A4 and NADPH by cell titer-glo luminescence assay relative to BSO alone. Conditions: recombinant enzyme.

The target of series [19] is T1, Cytochrome P450 3A4. Nature of the series: Drug activation in human Hep3B cells assessed as human CYP3A4-mediated drug metabolism-induced cytotoxicity measured as decrease in cell viability at 6.5 uM pre-incubated with BSO for 18 hrs followed by incubation with compound for 3 hrs in presence of NADPH measured after 24 hrs in absence of compound, CYP3A4 and NADPH by cell titer-glo luminescence assay relative to BSO alone. As to conditions: recombinant enzyme.

In series [20] the target is T2, Cytochrome P450 2D6. Nature of the series: Drug activation in human Hep3B cells assessed as human CYP2D6-mediated drug metabolism-induced cytotoxicity measured as decrease in cell viability at 4.8 uM pre-incubated with BSO for 18 hrs followed by incubation with compound for 3 hrs in presence of NADPH measured after 24 hrs in absence of compound, CYP3A4 and NADPH by cell titer-glo luminescence assay relative to BSO alone. As to conditions: recombinant enzyme.

The target of series [21] is T3, Cytochrome P450 2C9. Description: Drug activation in human Hep3B cells assessed as human CYP2C9-mediated drug metabolism-induced cytotoxicity measured as decrease in cell viability at […] uM pre-incubated with BSO for 18 hrs followed by incubation with compound for 3 hrs in presence of NADPH measured after 24 hrs in absence of compound, CYP3A4 and NADPH by cell titer-glo luminescence assay relative to BSO alone. Conditions: recombinant enzyme, 14.6 µM.

T3 sequence (P11712 whole entry): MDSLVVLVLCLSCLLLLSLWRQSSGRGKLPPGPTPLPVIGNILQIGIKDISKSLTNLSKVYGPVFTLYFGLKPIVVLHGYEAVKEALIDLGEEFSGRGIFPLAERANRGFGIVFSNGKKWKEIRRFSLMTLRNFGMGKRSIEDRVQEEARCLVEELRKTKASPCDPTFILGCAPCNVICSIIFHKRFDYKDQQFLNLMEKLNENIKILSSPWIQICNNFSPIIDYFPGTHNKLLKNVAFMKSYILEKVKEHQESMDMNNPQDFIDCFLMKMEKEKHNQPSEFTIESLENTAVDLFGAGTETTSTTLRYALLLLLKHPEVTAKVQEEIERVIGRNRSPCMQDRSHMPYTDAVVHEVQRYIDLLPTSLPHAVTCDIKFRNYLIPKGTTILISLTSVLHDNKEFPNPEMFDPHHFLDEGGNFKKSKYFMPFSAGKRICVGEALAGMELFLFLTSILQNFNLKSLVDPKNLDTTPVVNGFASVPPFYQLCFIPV

Take `CN1CC(C(=O)N[C@]2(C)O[C@@]3(O)[C@@H]4CCCN4C(=O)[C@H](Cc4ccccc4)N3C2=O)C[C@@H]2c3cccc4[nH]cc(c34)C[C@H]21` (stereo partly specified): the figures for the “fold change (FC)” value at Cytochrome P450 3A4 [1], on Cytochrome P450 2D6 [2] and at Cytochrome P450 2C9 [3] were 0.7, 0.5 and 0.5, respectively.

As to `CN1[C@@H]2CC[C@H]1C[C@@H](OC(c1ccccc1)c1ccccc1)C2` [BENZTROPINE], the figures for the “fold change (FC)” value at Cytochrome P450 3A4 [4], at Cytochrome P450 2D6 [5] and at Cytochrome P450 2C9 [6] were 1.2, 0.7 and 0.5, respectively.

With `CC[C@@H](CO)NC(=O)[C@@H]1C=C2c3cccc4c3c(cn4C)C[C@H]2N(C)C1` [METHYSERGIDE], the “fold change (FC)” value was 2.9 at Cytochrome P450 3A4 [7], 2.1 on Cytochrome P450 2D6 [8] and 0.6 on Cytochrome P450 2C9 [9].

For the molecule `CCN(CC)CC#CCOC(=O)C(O)(c1ccccc1)C1CCCCC1` (stereo unspecified) [OXYBUTYNIN], the “fold change (FC)” value at Cytochrome P450 3A4 [10] was determined as 4.3; at Cytochrome P450 2D6 [11], 0.4; on Cytochrome P450 2C9 [12], 0.6.

Regarding `CC(C)(C)NC[C@H](O)COc1ccccc1C1CCCC1` [PENBUTOLOL], the “fold change (FC)” value at Cytochrome P450 3A4 [13] is 1.5; at Cytochrome P450 2D6 [14] it was 0.8; at Cytochrome P450 2C9 [15], 0.9.

Take `CC(COc1ccccc1)N(CCCl)Cc1ccccc1` (stereo unspecified) [PHENOXYBENZAMINE]: the “fold change (FC)” value amounted to 1.3 on Cytochrome P450 3A4 [16], 1.5 on Cytochrome P450 2D6 [17] and 0.9 on Cytochrome P450 2C9 [18].

`COc1cc(NC(C)CCCN)c2ncccc2c1` (stereo unspecified) [PRIMAQUINE]: the “fold change (FC)” value on Cytochrome P450 3A4 [19] stood at 12.3; on Cytochrome P450 2D6 [20], 16.7. In addition, on Cytochrome P450 2C9 [21], the FC is on record as 5.5.

The record behind these values is ChEMBL document CHEMBL4477225, “Development of a cell viability assay to assess drug metabolite structure-toxicity relationships” (Bioorg Med Chem Lett, 2016).
